Reference: BigSolDB 2.1

CN(C)[C@@H]1C(=O)C(C(N)=O)=C(O)[C@@]2(O)C(=O)C3=C(O)c4c(O)cccc4C[C@H]3C[C@@H]12
solubility (mole fraction)
Details	278.15 K	283.15 K	288.15 K	293.15 K	298.15 K	303.15 K	308.15 K	313.15 K	318.15 K
in 1,4-dioxane	–	–	0.00134	0.00159	0.00188	0.0022	0.00255	0.00294	0.00336
in acetonitrile	0.000118	0.00013	0.000143	0.000156	0.000171	0.000188	0.000206	0.000226	0.000248
in cyclohexane	7.64e-06	1.05e-05	1.42e-05	1.93e-05	2.47e-05	3.03e-05	3.85e-05	4.74e-05	5.7e-05
in ethanol	0.000131	0.000144	0.000158	0.000172	0.000188	0.000207	0.000225	0.000244	0.000264
in ethyl acetate	0.00032	0.000392	0.000464	0.000551	0.000649	0.000761	0.000882	0.00103	0.00119
in isobutanol	3.76e-05	4.32e-05	4.9e-05	5.53e-05	6.3e-05	7.17e-05	8.14e-05	9.21e-05	0.000103
in isopropanol	4.02e-05	4.65e-05	5.37e-05	6.18e-05	7.05e-05	8.05e-05	9.19e-05	0.000105	0.000118
in methanol	0.000166	0.000183	0.0002	0.000218	0.000237	0.000258	0.000282	0.000306	0.000332
in n-butanol	4.76e-05	5.56e-05	6.47e-05	7.34e-05	8.37e-05	9.51e-05	0.000107	0.000121	0.000135
in n-hexane	3.64e-05	4.07e-05	4.51e-05	5.06e-05	5.66e-05	6.34e-05	7.17e-05	8.08e-05	8.98e-05
in n-octanol	3.16e-05	3.56e-05	3.99e-05	4.48e-05	5.08e-05	5.71e-05	6.47e-05	7.21e-05	8.04e-05
in n-propanol	0.000101	0.000106	0.000112	0.00012	0.000128	0.000136	0.000145	0.000155	0.000166
